Reference: the CheMixHub drug solubility set

Assay: xn = mol fraction of the nth substance listed, in the solute-free solvent

O=c1cc(CBr)c2ccccc2[nH]1 + CN1CCCC1=O + O
solubility (g/100 g solution)
Conditions	278.15 K	283.15 K	288.15 K	293.15 K	298.15 K	303.15 K	308.15 K	313.15 K	318.15 K
x2 = 0.0198	0.0293	0.0392	0.0514	0.0682	0.0873	0.117	0.149	0.189	0.234
x2 = 0.04347	0.107	0.136	0.176	0.223	0.281	0.361	0.442	0.546	0.67
x2 = 0.07228	0.271	0.344	0.428	0.538	0.646	0.804	0.971	1.16	1.41
x2 = 0.1081	0.494	0.611	0.762	0.924	1.12	1.37	1.66	1.97	2.35
x2 = 0.1538	0.764	0.928	1.13	1.36	1.65	1.94	2.3	2.71	3.16
x2 = 0.2143	1.04	1.24	1.5	1.76	2.11	2.47	2.9	3.34	3.89
x2 = 0.2979	1.24	1.48	1.76	2.07	2.46	2.87	3.32	3.82	4.37
x2 = 0.421	1.38	1.62	1.91	2.24	2.57	2.99	3.44	3.93	4.47
x2 = 0.6207	1.42	1.64	1.9	2.19	2.5	2.89	3.26	3.7	4.17

CC1=NNC(=O)N(N=Cc2cccnc2)C1 + CN(C)C=O + CC(C)O
solubility (g/100 g solution)
Conditions	278.15 K	283.15 K	288.15 K	293.15 K	298.15 K	303.15 K	308.15 K	313.15 K	318.15 K
x2 = 0.1705	0.264	0.304	0.352	0.405	0.466	0.532	0.612	0.697	0.796
x2 = 0.354	0.455	0.512	0.588	0.68	0.777	0.896	1.02	1.15	1.3
x2 = 0.5522	0.614	0.694	0.802	0.91	1.04	1.18	1.33	1.5	1.69
x2 = 0.7668	0.771	0.871	0.998	1.13	1.29	1.47	1.65	1.85	2.1

COC(=O)Nc1nc2ccccc2[nH]1 + CN(C)C=O + O
solubility (g/100 g solution)
Conditions	278.15 K	283.15 K	288.15 K	293.15 K	298.15 K	303.15 K	308.15 K	313.15 K	318.15 K
x2 = 0.02669	0.00314	0.0037	0.00435	0.00513	0.00608	0.0069	0.00793	0.00907	0.0104
x2 = 0.05816	0.0129	0.0149	0.017	0.0196	0.0227	0.0252	0.0284	0.0319	0.0358
x2 = 0.09552	0.0278	0.0343	0.0397	0.045	0.0511	0.0563	0.0627	0.0696	0.0773
x2 = 0.1411	0.0542	0.0604	0.0678	0.076	0.0856	0.0938	0.103	0.114	0.126
x2 = 0.1978	0.0795	0.0881	0.098	0.109	0.122	0.133	0.147	0.161	0.175
x2 = 0.2702	0.108	0.12	0.133	0.147	0.163	0.177	0.194	0.211	0.23
x2 = 0.3643	0.144	0.159	0.174	0.192	0.212	0.23	0.25	0.271	0.294
x2 = 0.4967	0.186	0.205	0.223	0.244	0.268	0.29	0.315	0.339	0.365
x2 = 0.6912	0.219	0.24	0.259	0.282	0.308	0.333	0.359	0.387	0.416

Nc1cc(-c2ccncc2)c[nH]c1=O + CN(C)C=O + O
solubility (g/100 g solution)
Conditions	278.15 K	283.15 K	288.15 K	293.15 K	298.15 K	303.15 K	308.15 K	313.15 K	318.15 K	323.15 K
x2 = 0.02666	0.00203	0.00236	0.0028	0.00324	0.00375	0.00428	0.00488	0.00552	0.00624	0.00705
x2 = 0.05806	0.00422	0.00489	0.00574	0.00661	0.00759	0.00861	0.00975	0.011	0.0123	0.0139
x2 = 0.09556	0.00683	0.00794	0.00916	0.0106	0.0122	0.014	0.0156	0.0177	0.0198	0.0224
x2 = 0.1412	0.00979	0.0113	0.0131	0.015	0.0171	0.0195	0.0221	0.0248	0.0277	0.0316
x2 = 0.1978	0.0124	0.0143	0.0167	0.0193	0.022	0.0249	0.0283	0.0322	0.036	0.0407
x2 = 0.27	0.0152	0.0177	0.0208	0.0238	0.0272	0.0308	0.0348	0.0395	0.0442	0.0497
x2 = 0.3652	0.0161	0.0195	0.0231	0.0268	0.0307	0.035	0.0397	0.0451	0.0506	0.0572
x2 = 0.4965	0.0192	0.0227	0.0267	0.0306	0.035	0.0398	0.0452	0.0516	0.0579	0.0654
x2 = 0.6893	0.0186	0.0221	0.0258	0.0305	0.0349	0.0402	0.0458	0.0523	0.0593	0.0673

Cl.NC1CCSC1=O (stereo not drawn) + CO + CC#N
solubility (g/100 g solution)
Conditions	x2 = 0.1	x2 = 0.2	x2 = 0.3	x2 = 0.4	x2 = 0.5	x2 = 0.6	x2 = 0.7	x2 = 0.8	x2 = 0.9
283.15 K	0.153	0.482	1.04	1.98	3.18	4.35	4.99	5.63	6.22
293.15 K	0.155	0.525	1.13	2.12	3.55	4.89	6.04	6.92	7.84
303.15 K	0.17	0.539	1.22	2.35	3.91	5.55	6.97	8.29	9.23
313.15 K	0.177	0.556	1.32	2.56	4.25	6.26	7.78	9.55	10.7
323.15 K	0.194	0.6	1.46	2.83	4.71	7.06	8.51	10.9	12.3

Nc1cccc2c1CN(C1CCC(=O)NC1=O)C2=O (stereo not drawn) + CO + CCOC(C)=O
solubility (g/100 g solution)
Conditions	273.15 K	278.15 K	283.15 K	288.15 K	293.15 K	298.15 K	303.15 K	308.15 K	313.15 K	318.15 K
x2 = 0.4074	0.261	0.29	0.318	0.352	0.389	0.429	0.475	0.525	0.581	0.642
x2 = 0.647	0.353	0.398	0.443	0.489	0.536	0.592	0.648	0.714	0.786	0.863
x2 = 0.8048	0.354	0.393	0.437	0.491	0.546	0.608	0.679	0.76	0.852	0.952
x2 = 0.9166	0.352	0.385	0.426	0.481	0.536	0.599	0.67	0.755	0.854	0.959
